Assay results: patent publication US20250215029A1 (Recludix Pharma, Inc., priority 2022, published 2025)
Where two headings read alike, the source gives them in different places.

How the values were obtained:
[1] = target: T1, Recombinant STAT3 protein (STAT3 (G127-I722)) (Homo sapiens, UniProt P40763); experiment: STAT3 Fluorescence Polarization (FP) Assay; type: binding; conditions: probe 5-FAM-GpYLPQTV-NH2 2 nM, 45-minute incubation
T1 construct: Recombinant STAT3 protein (STAT3 (G127-I722))
T1 sequence (P40763 127-722): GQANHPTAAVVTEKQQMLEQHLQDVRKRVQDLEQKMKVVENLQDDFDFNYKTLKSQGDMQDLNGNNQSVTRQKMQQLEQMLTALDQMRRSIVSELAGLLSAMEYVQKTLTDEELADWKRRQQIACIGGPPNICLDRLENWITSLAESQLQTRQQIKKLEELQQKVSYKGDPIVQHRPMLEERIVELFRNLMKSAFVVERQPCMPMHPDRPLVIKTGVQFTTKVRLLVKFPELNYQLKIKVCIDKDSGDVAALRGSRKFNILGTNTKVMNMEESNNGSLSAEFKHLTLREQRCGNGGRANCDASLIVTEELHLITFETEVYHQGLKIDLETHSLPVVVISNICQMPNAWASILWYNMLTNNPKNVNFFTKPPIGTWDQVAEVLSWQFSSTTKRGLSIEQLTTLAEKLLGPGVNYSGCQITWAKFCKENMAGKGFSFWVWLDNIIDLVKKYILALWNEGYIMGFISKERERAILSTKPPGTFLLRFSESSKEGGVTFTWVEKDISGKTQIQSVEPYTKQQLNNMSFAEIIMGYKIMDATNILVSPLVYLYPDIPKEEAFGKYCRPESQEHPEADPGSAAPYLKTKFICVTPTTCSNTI
Description: STAT3 Fluorescence Polarization (FP) Assay
An FP assay was developed to determine IC50 values for test substances. Recombinant STAT3 protein (STAT3 (G127-I722)) at 25 nM was combined with a fluorescently labeled, phosphotyrosine peptide probe (5-FAM-GpYLPQTV-NH2) at 2 nM in FP buffer (10 mM HEPES pH 7.4, 50 mM NaCl, 1 mM EDTA, 0.05% Tween 20.2 mM DTT). 50 μL of STAT3-probe mixture was added to serial diluted compounds in black, 96-well plates (Greiner BioOne 655076) to a final concentration of 1% DMSO. Reaction components were mixed, and FP was measured after 45-minute incubation at room temperature using a Tecan Spark multimode plate reader. FP signal (mP) was plotted against the log concentration of the test substances and IC50 values were calculated by nonlinear regression analysis using GraphPad Prism software. For STAT3 FP assay, A=≤100 nM; B=>100-1000 nM; C=>1-10 μM; and D=>10 μM.

[2] = target: T2, Recombinant STAT6 protein (STAT6 (W123-T658)) (Homo sapiens, UniProt P42226); experiment: STAT6 Fluorescence Polarization (FP) Assay; type: binding; conditions: 45-minute incubation
T2 construct: Recombinant STAT6 protein (STAT6 (W123-T658))
T2 sequence (P42226 123-658): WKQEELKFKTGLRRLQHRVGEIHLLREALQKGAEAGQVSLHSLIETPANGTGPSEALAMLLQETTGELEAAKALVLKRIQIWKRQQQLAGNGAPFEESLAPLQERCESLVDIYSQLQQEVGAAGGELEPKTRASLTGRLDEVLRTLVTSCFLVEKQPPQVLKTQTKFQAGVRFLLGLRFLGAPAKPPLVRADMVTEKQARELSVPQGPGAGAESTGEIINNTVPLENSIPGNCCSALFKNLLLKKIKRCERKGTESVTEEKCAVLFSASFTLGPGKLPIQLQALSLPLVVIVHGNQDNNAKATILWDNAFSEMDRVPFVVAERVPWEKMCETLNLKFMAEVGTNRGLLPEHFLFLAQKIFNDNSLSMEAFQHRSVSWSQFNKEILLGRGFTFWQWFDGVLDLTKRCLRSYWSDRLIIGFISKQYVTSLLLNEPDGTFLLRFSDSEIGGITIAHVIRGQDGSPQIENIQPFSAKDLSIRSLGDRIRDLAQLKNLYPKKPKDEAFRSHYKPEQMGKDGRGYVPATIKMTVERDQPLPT
Description: STAT6 Fluorescence Polarization (FP) Assay
An FP assay was developed to determine IC50 values for test substances. Recombinant STAT6 protein (STAT6 (W123-T658)) at 250 nM was combined with a fluorescently labeled, phosphotyrosine peptide probe (5-FAM-Ap[…]-NH2) at 2 nM in FP buffer (10 mM HEPES pH 7.4, 50 mM NaCl, 1 mM EDTA, 0.05% Tween 20, 2 mM DTT). 50 μL of STAT6-probe mixture was added to serial diluted compounds in black, 96-well plates (Greiner BioOne 655076) to a final concentration of 1% DMSO. Reaction components were mixed, and FP was measured after 45-minute incubation at room temperature using a Tecan Spark multimode plate reader. FP signal (mP) was plotted against the log concentration of the test substances and IC50 values were calculated by nonlinear regression analysis using GraphPad Prism software. For STAT6 FP assay, A=≤300 nM; B=>300-3000 nM; C=>3-30 μM; and D=>30 μM.

[3] = STAT3 (G127-I722) 25 nM, read-out: STAT3 (FP assay IC50 class)
[4] = STAT6 (W123-T658) 250 nM, probe 5-FAM-Ap[…]-NH2 2 nM, read-out: STAT6 (FP assay IC50 class)
[5] = STAT6 (W123-T658) 250 nM, probe 5-FAM-ApYKPFQDLI-NH2 2 nM, read-out: STAT6 (FP assay IC50 class)
[6] = STAT3 25 nM, read-out: STAT3 (FP assay IC50)
[7] = STAT6 250 nM, probe 5-FAM-Ap[…]-NH2 2 nM, read-out: STAT6 (FP assay IC50)

Row | SMILES | IC50 [1, 3] | IC50 [2, 4] | IC50 [1, 6] | IC50 [2, 7] | further results
1 | N#C[C@H]1CN(C(=O)[C@@H]2CCC[C@@H]3CCCC[C@H](NC(=O)c4cc5cc(C(F)P(=O)(O)O)ccc5s4)C(=O)N32)C[C@@H]1c1ccccc1 (relative stereo) [Compound 552, ((2-(((4S,7S,11aS)-4-((rel-trans)-3-cyano-4-phenylpyrrolidine-1-carbonyl)-6-oxodecahydro-2H-pyrido[1,2-a]azocin-7-yl)carbamoyl)benzo[b]thiophen-5-yl)fluoromethyl)phosphonic acid] | 1000 to 10000 nM | ≤ 300 nM | – | – | –
2 | N#C[C@@H]1CN(C(=O)[C@@H]2C[C@@H](O)[C@@H]3CCCCC[C@H](NC(=O)c4cc5cc(C(F)P(=O)(O)O)ccc5s4)C(=O)N23)C[C@H]1c1ccccc1 (relative stereo) [Compound 553, ((2-(((1R,3S,6S,11aS)-3-((rel-trans)-3-cyano-4-phenylpyrrolidine-1-carbonyl)-1-hydroxy-5-oxodecahydro-1H-pyrrolo[1,2-a]azonin-6-yl)carbamoyl)benzo[b]thiophen-5-yl)fluoromethyl)phosphonic acid] | 1000 to 10000 nM | 300 to 3000 nM | – | – | –
3 | N#CC1CN(C(=O)[C@@H]2CC[C@@H]3CC[C@H](NC(=O)c4cc5cc(C(F)(F)P(=O)(O)O)ccc5s4)C(=O)N32)C[C@@H]1c1ccccc1 (relative stereo) [Compound 733, ((2-(((3S,6S,8aS)-3-((rel-trans)-3-cyano-4-phenylpyrrolidine-1-carbonyl)-5-oxooctahydro-indolizin-6-yl)carbamoyl)benzo [b]thiophen-5-yl)difluoromethyl) phosphonic acid] | 1000 to 10000 nM | 300 to 3000 nM | – | – | –
4 | N#CC1CN(C(=O)[C@@H]2C[C@@H](O)[C@H]3C/C=C\C[C@H](NC(=O)c4cc5cc(C(F)(F)P(=O)(O)O)ccc5s4)C(=O)N32)CC1c1ccccc1 (relative stereo) [Compound 758, ((2-(((1R,3S,6S,10aR,Z)-3-((rel-trans)-3-cyano-4-phenylpyrrolidine-1-carbonyl)-1-hydroxy-5-oxo-1,2,3,5,6,7,10,10a-octahydropyrrolo[1,2-a]azocin-6-yl)carbamoyl)benzo [b]thiophen-5-yl)difluoromethyl) phosphonic acid] | 1000 to 10000 nM | – | – | – | IC50 [2, 5]: 300 to 3000 nM
5 | N#C[C@@H]1CN(C(=O)[C@@H]2CC[C@@H]3CCCC[C@H](NC(=O)c4cc5cc(C(F)(F)P(=O)(O)O)ccc5s4)C(=O)N32)C[C@H]1c1cccc(=O)[nH]1 (relative stereo) [Compound 867, ((2-(((3S,6S,10aS)-3-((rel-trans)-3-cyano-4-(6-oxo-1,6-dihydropyridin-2-yl)pyrrolidine-1-carbonyl)-5-oxodecahydropyrrolo [1,2-a]azocin-6-yl)carbamoyl)benzo [b]thiophen-5-yl)difluoromethyl) phosphonic acid] | 100 to 1000 nM | – | – | – | IC50 [2, 5]: ≤ 300 nM
6 | O=C(N[C@H]1CCCC[C@H]2CC[C@@H](C(=O)N[C@H]3COCC3F)N2C1=O)c1cc2cc(C(F)(F)P(=O)(O)O)ccc2s1 (relative stereo) [Compound 1109, (difluoro(2-(((3S,6S,10aS)-3-(((rel-trans)-4-fluorotetrahydrofuran-3-yl)carbamoyl)-5-oxodecahydropyrrolo[1,2-a]azocin-6-yl)carbamoyl)benzo[b]thiophen-5-yl)methyl)phosphonic acid] | 100 to 1000 nM | 300 to 3000 nM | – | – | –
7 | O=C(N[C@H]1CCCC[C@H]2CC[C@@H](C(=O)N[C@H]3COC[C@H]3F)N2C1=O)c1cc2cc(C(F)(F)P(=O)(O)O)ccc2s1 (relative stereo) [Compound 1111, (difluoro(2-(((3S,6S,10aS)-3-(((rel-trans)-4-fluorotetrahydrofuran-3-yl)carbamoyl)-5-oxodecahydropyrrolo[1,2-a]azocin-6-yl)carbamoyl)benzo[b]thiophen-5-yl)methyl)phosphonic acid] | 1000 to 10000 nM | 3000 to 30000 nM | – | – | –
8 | C[C@@]1(O)CC[C@H]2CC[C@@H](C(=O)N3C[C@H](c4ccccc4)[C@@H](C#N)C3)N2C(=O)[C@@H](NC(=O)c2cc3cc(C(F)(F)P(=O)(O)O)ccc3s2)C1 (single isomer, unassigned) [Compound 14, ((2-(((3S,6S,8R,10aR)-3-((3R,4S or 3S,4R)-3-cyano-4-phenylpyrrolidine-1-carbonyl)-8-hydroxy-8-methyl-5-oxodecahydropyrrolo [1,2-a]azocin-6-yl)carbamoyl)benzo[b]thiophen-5-yl)difluoromethyl) phosphonic acid] | – | – | 100 to 1000 nM | ≤ 300 nM | –
9 | N#C[C@@H]1CN(C(=O)[C@@H]2CC[C@@H]3CCCC[C@H](NC(=O)c4cc5cc([C@H](F)P(=O)(O)O)ccc5s4)C(=O)N32)C[C@H]1c1ccccc1 (single isomer, unassigned) [Compound 18, ((2-(((3S,6S,10aS)-3-((3S,4R or 3R,4S)-3-cyano-4-phenylpyrrolidine-1-carbonyl)-5-oxodecahydropyrrolo [1,2-a]azocin-6-yl)carbamoyl)benzo[b]thiophen-5-yl)fluoromethyl) phosphonic acid] | – | – | 1000 to 10000 nM | ≤ 300 nM | –
10 | N#C[C@@H]1CN(C(=O)[C@@H]2CC[C@@H]3CCCC[C@H](NC(=O)c4cc5cc([C@@H](F)P(=O)(O)O)ccc5s4)C(=O)N32)C[C@H]1c1ccccc1 (single isomer, unassigned) [Compound 19, ((2-(((3S,6S,10aS)-3-((3S,4R or 3R,4S))-3-cyano-4-phenylpyrrolidine-1-carbonyl)-5-oxodecahydropyrrolo [1,2-a]azocin-6-yl)carbamoyl)benzo[b]thiophen-5-yl)fluoromethyl) phosphonic acid] | – | – | 1000 to 10000 nM | ≤ 300 nM | –
11 | N#C[C@@H]1CN(C(=O)[C@@H]2CC[C@@H]3CCCC[C@H](NC(=O)c4cc5cc(C(F)(F)P(=O)(O)O)ccc5s4)C(=O)N32)C[C@H]1c1ccccc1 (single isomer, unassigned) [Compound 22, ((2-(((3S,6S,10aS)-3-((3S,4R or 3R,4S))-3-cyano-4-phenylpyrrolidine-1-carbonyl)-5-oxodecahydropyrrolo [1,2-a]azocin-6-yl)carbamoyl)benzo[b]thiophen-5-yl) difluoromethyl) phosphonic acid] | – | – | 1000 to 10000 nM | ≤ 300 nM | –
12 | N#C[C@@H]1CN(C(=O)[C@@H]2CC[C@@H]3CCCC[C@H](NC(=O)c4ccc5ccc(C(F)(F)P(=O)(O)O)cc5c4)C(=O)N32)C[C@H]1c1cc[nH]c(=O)c1 (single isomer, unassigned) [Compound 79, ((7-(((3S,6S,10aS)-3-((3S,4R or 3R,4S)-3-cyano-4-(2-oxo-1,2-dihydropyridin-4-yl)pyrrolidine-1-carbonyl)-5-oxodecahydropyrrolo [1,2-a]azocin-6-yl)carbamoyl)naphthalen-2-yl)difluoromethyl) phosphonic acid] | – | – | 100 to 1000 nM | – | IC50 ([2]; STAT6 250 nM, probe 5-FAM-ApYKPFQDLI-NH2 2 nM, read-out: STAT6 (FP assay IC50)): ≤ 300 nM
